Assay results reported in patent US4394383A, “N-Alkoxysulfenylcarbamates useful as insecticides” (priority 1981, dated 1983).
Read-outs that look alike come from different tables or passages of the source.

Experiments:
Assay type in all cases: in vivo
[1] = Mammalian toxicity, oral, Swiss white mice; details: mouse, in vivo, po
Description: (§1) Mammalian toxicity was determined against Swiss white mice. The test compound was applied orally using corn oil as the carrier. Results are given as LD50 in mg of compound per kg body weight.
(§2) The term "LD50 " represents the dose needed to kill 50% of the test animals. In interpreting the values in the table above, the lower the value for LD50 for house flies, the greater the insecticidal potency or toxicity of that particular compound. On the other hand, the higher the value of LD50 for mice, the lower the mammalian toxicity or the greater is the mammalian safety of such compound.

[2] = tested on: house flies, Musca domestica; test: Insecticidal activity against house flies, topical application on the notum, 24 h mortality; details: for LD50: Musca domestica
Description: Representative compounds of the N-alkoxysulfenylcarbamate esters of the invention were tested for insecticidal activity against house flies, Musca domestica. Stock 1% concentrated solutions of each of the test compounds were made in acetone, and such solutions diluted with acetone to a concentration of 0.001-0.1%. House flies were treated topically on the notum by 1 μl of each of the diluted acetone solutions and percent mortality was counted 24 hours after application. Insects were held at constant temperature of 60° F.
as §2

Swiss white mice = test: Mammalian toxicity, oral, Swiss white mice; details: mice / mammals; comparison with parent carbamate or purified compound
Description: as §1, §2

[3] = Table 1, oral in corn oil, samples contained polysulfide derivative in the amounts indicated, read-out: Mice LD50
[4] = Table 2, polysulfide derivatives, oral in corn oil, read-out: Mice Toxicity LD50

Structure (SMILES)	LD50 [1, 3] [mg/kg]	LD50 ([2]; read-out: House flies LD50) [mg/kg]	further results
CCCCCCCCCCOSN(C)C(=O)Oc1cccc2c1OC(C)(C)C2 [Example 15, 2,3-Dihydro-2,2-dimethyl-7-benzofuranyl (decyloxysulfenyl)(methyl)carbamate]	135	7.3	
CN(SOCc1ccccc1)C(=O)Oc1cccc2c1OC(C)(C)C2 [Example 6, 2,3-dihydro-2,2-dimethyl-7-benzofuranyl(benzyloxysulfenyl)(methyl)carbamate]	59	7.5	
CNC(=O)Oc1cccc2c1OC(C)(C)C2 [Carbofuran, 2,3-dihydro-2,2-dimethyl-7-benzofuranyl methylcarbamate, reference compound]		11	LD50 [1, 4]: 11 to 19 mg/kg; LD50 ([1]; read-out: LD50 for mice): 11 mg/kg; LD50 ([2]; read-out: LD50 value for house flies): ~11 mg/kg
COc1ccc(COSN(C)C(=O)Oc2cccc3c2OC(C)(C)C3)cc1 [Example 16, 2,3-Dihydro-2,2-dimethyl-7-benzofuranyl (P--methoxybenzyloxysulfenyl)(methyl)carbamate]	108	13.8	
COSN(C)C(=O)Oc1cccc2c1OC(C)(C)C2 [Example 1, 2,3-dihydro-2,2-dimethyl-7-benzofuranyl(methoxysulfenyl)(methyl)carbamate]	43	15.5	LD50 [1, 4]: 43 mg/kg
CNC(=O)Oc1ccccc1OC(C)C [propoxur, 2-isopropoxyphenyl methylcarbamate, reference compound]			LD50 ([1]; read-out: LD50 for mice): 62 mg/kg
CCCCOSN(C)C(=O)Oc1cccc(C(C)C)c1 [Example 10, 3-isopropylphenyl(butoxysulfenyl)(methyl)carbamate]	130	120	
CC(C)c1cccc(OC(=O)N(C)SOCc2ccccc2)c1 [Example 11, 3-isopropylphenyl(benzyloxysulfenyl)(methyl)carbamate]	210	175	
CC(C)OSN(C)C(=O)Oc1cccc2c1OC(C)(C)C2 [Example 3, 2,3-dihydro-2,2-dimethyl-7-benzofuranyl(isopropoxysulfenyl)(methyl)carbamate]	55 to 70	31	
CCCCCCOSN(C)C(=O)Oc1cccc2c1OC(C)(C)C2 [CH2 (CH2)4 CH3, n = 1, 2,3-dihydro-2,2-dimethyl-7-benzofuranyl(hexyloxysulfenyl)(methyl)carbamate]			LD50 [1, 4]: 37 mg/kg; House flies LD50 ([2]; Table 2, polysulfide derivatives): 9.3 µg/g
CCOSN(C)C(=O)Oc1cccc2c1OC(C)(C)C2 [Example 2, 2,3-dihydro-2,2-dimethyl-7-benzofuranyl(ethoxysulfenyl)(methyl)carbamate]	46	15.8	
CCCCCCOSN(C)C(=O)Oc1cccc2c1OC(C)(C)C2 [Example 4, 2,3-dihydro-2,2-dimethyl-7-benzofuranyl(hexyloxysulfenyl)(methyl)carbamate]	88	9.3	
CCCCCCCCOSN(C)C(=O)Oc1cccc2c1OC(C)(C)C2 [Example 14, 2,3-Dihydro-2,2-dimethyl-7-benzofuranyl (methyl)-(octyloxysulfenyl)carbamate]	100	13	
CCC(CC)OSN(C)C(=O)Oc1cccc2c1OC(C)(C)C2 [Example 12, 2,3-Dihydro-2,2-dimethyl-7-benzofuranyl (1-ethylpropoxysulfeny)(methyl)carbamate]	63	21	
CN(SOC(C)(C)C)C(=O)Oc1cccc2c1OC(C)(C)C2 [Example 13, 2,3-Dihydro-2,2-dimethyl-7-benzofuranyl (tert-butoxysulfenyl)(methyl)carbamate]	75	20 to 30	
CCCCCCCCCCCCCCCCCCOSN(C)C(=O)Oc1cccc2c1OC(C)(C)C2 [Example 18, 2,3-Dihydro-2,2-dimethyl-7-benzofuranyl (methyl)(octadecyloxysulfenyl)carbamate]	≥ 1000	75	
COSSN(C)C(=O)Oc1cccc2c1OC(C)(C)C2 [CH3, n = 2, disulfide derivative of 2,3-dihydro-2,2-dimethyl-7-benzofuranyl(methoxysulfenyl)(methyl)carbamate]		20.5	LD50 [1, 4]: 48 mg/kg
CN(SOC1CCCCC1)C(=O)Oc1cccc2c1OC(C)(C)C2 [Example 5, 2,3-dihydro-2,2-dimethyl-7-benzofuranyl(cyclohexyloxysulfenyl)(methyl)carbamate]	69	21.5	
CC(C)Oc1ccccc1OC(=O)N(C)SOCc1ccccc1 [Example 9, 2-isopropoxyphenyl(benzyloxysulfenyl)(methyl)carbamate]	> 1000	30	LD50 ([1]; read-out: LD50 for mice): > 1000 mg/kg; mammalian toxicity / safety (in words) (Swiss white mice): much safer to mammals
CCCCCCCCCCCCOSN(C)C(=O)Oc1cccc2c1OC(C)(C)C2 [Example 7, 2,3-dihydro-2,2-dimethyl-7-benzofuranyl(dodecyloxysulfenyl)(methyl)carbamate]	340	21	
CCCCOSN(C)C(=O)Oc1ccccc1OC(C)C [Example 8, 2-isopropoxyphenyl(butoxysulfenyl)(methyl)]	> 1000	46	
CCCCCCOSSN(C)C(=O)Oc1cccc2c1OC(C)(C)C2 [CH2 (CH2)4 CH3, n = 2, disulfide derivative of 2,3-dihydro-2,2-dimethyl-7-benzofuranyl(hexyloxysulfenyl)(methyl)carbamate]		13	LD50 [1, 4]: 72 mg/kg
CN(SOCc1ccc(C(C)(C)C)cc1)C(=O)Oc1cccc2c1OC(C)(C)C2 [Example 17, 2,3-Dihydro-2,2-dimethyl-7-benzofuranyl (P--tert-butylbenzyloxysulfenyl)(methyl)carbamate]	98	15.5	
